The source of these data is patent US20160143946A1, “COMBINATION THERAPIES FOR TREATING CANCER” (priority 2014, published 2016).

Like-named read-outs stand apart in the source and are kept apart here.

Holding throughout (format): cell-based, human
Experiment [1] has as its system SW780 bladder cancer cell line. Nature of the experiment: Cell viability by MTT incorporation, SW780 bladder cancer cells. The conditions noted are these: read-out: SW780 IC50. On the procedure: (§1) SW780 and HT1376 bladder cancer cell lines stained with anti-CD44 and anti-CD49f were examined by flow cytometry. Cells were treated with cisplatin, AR-42, sodium butyrate, valproic acid, and trichostatin A at concentrations indicated for 24 hours and cell viability was determined by MTT incorporation. The table denotes IC50s for SW780 and HT1376 cells to listed agents.
(§2) Bladder Cancer Cell Lines—SW780 and HT1376 cell lines were grown in RPMI with 10% fetal bovine serum at 37° C. with 5% CO2 and treated with cisplatin, AR-42, sodium butyrate, trichostatin A, and valproic acid at concentrations indicated.
(§3) SW780 and HT1376 cell lines were treated with cisplatin, AR-42, sodium butyrate, valproic acid, and trichostatin A at various concentrations and cell viability was determined by MTT incorporation (FIG. 1).

In experiment [2] the test system is HT1376 bladder cancer cell line. Description: Cell viability by MTT incorporation, HT1376 bladder cancer cells. The following applies: read-out: HT1376 IC50. On the procedure: as §1, §2, §3
For experiment [3], the system named is SW780 cells. Description: Cisplatin / HDAC inhibitor combination, MTT survival with isobologram combination index, SW780. The conditions noted are these: administered at their IC90s; SW780 and HT1376 cells (Table 3). On the procedure: Isobolograms were used to calculate combination indices to indicate synergy at IC50 and IC90, whereby CI<1 denotes synergy.
as §2
SW780 and HT1376 cells treated with cisplatin, AR-42, a combination cisplatin and AR-42 at a 5:1 ratio, a combination cisplatin and AR-42 in a 20:1 molar ratio, as assessed by MTT incorporation (FIG. 2).

[4] abbreviates: Homo sapiens, SW780 cells, 24 hours treatment, MTT incorporation.
Where [5] appears, read: Homo sapiens, HT-1376, HT1376 cells, 24 hours treatment, MTT incorporation.
Setting [6] is: SW780 cells, 24 hours treatment, MTT incorporation.
Where [7] appears, read: HT1376 cells, 24 hours treatment, MTT incorporation.

As for `CC(C)[C@H](C(=O)Nc1ccc(C(=O)NO)cc1)c1ccccc1` [AR-42], the IC50 was 1.41 µM in experiment [1] (setting [4]) and 1.4 µM in experiment [2] (setting [5]). Also, the synergy with cisplatin entry in experiment [3] is “synergy”.

On to `N.N.[Cl][Pt][Cl]` [Cisplatin], for which the values for the IC50 in experiment [1] (setting [6]) and in experiment [2] (setting [7]) were 8.5 µM and 30.5 µM, respectively.

For `CCCC(=O)[O-].[Na+]` [Sodium Butyrate], the IC50 was 3780 µM in experiment [1] (Homo sapiens, SW780, 24 h) and 8530 µM in experiment [2] (Homo sapiens, HT-1376, 24 h). Further, the synergy with cisplatin entry in experiment [3] was “synergy”.

On to `CC(/C=C/C(=O)NO)=C\[C@@H](C)C(=O)c1ccc(N(C)C)cc1` [Trichostatin A], for which the values for the IC50 in experiment [1] (setting [6]) and in experiment [2] (setting [7]) were 0.25 µM and 0.12 µM, respectively.

As to `CCCC(CCC)C(=O)O` [Valproic Acid], the IC50 in experiment [1] (setting [4]) was found to be 6040 µM; in experiment [2] (setting [5]), 7390 µM.
